From US9096538B2, “Pharmaceutical comprising PPAR agonist” (Senju Pharmaceutical Co., Ltd., priority 2005, dated 2015)

Legend:
[1] = test system: rabbit corneal epithelial cell; assay: Test Example 1: increase in cell number, cultured rabbit corneal epithelial cell (Cell Counting Kit-8); assay type: cell-based; details: 48 hours, no addition group = 100%, average ± standard deviation, N = 5
Description: A male rabbit (Japanese white, […] LABES Co., Ltd.) was used. The experimental animal was used according to the International Guiding Principles for Biomedical Research Involving Animals.
A corneal epithelial cell was prepared from rabbit eyeballs. A cornea was excised from isolated eyeballs, and stored in Dulbecco's phosphate buffered saline (D-PBS; Invitrogen), and this was transferred to a clean bench. The following cell preparation procedures were all performed sterilely.
The isolated corneal segment was washed with D-PBS with 1% penicillin-streptomycin (Invitrogen) added thereto three times, and was transferred to a minimum essential medium (MEM; Invitrogen). A corneal endothelial cell and a Descemet's membrane of the corneal segment immersed in MEM were peeled with a knife (Alcon) for ocular operation, and the corneal segment (corneal stroma and corneal epithelium) after peeling was transferred to MEM to which dispase II (Roche Diagnostics) had been added to 2.4 U/mL. This was incubated at 37° C. for 1 hour and, thereafter, the dispase II-treated corneal segment was transferred to MEM. The corneal epithelium of the corneal segment immersed in MEM was peeled with the knife for ocular operation, and the corneal segment residue (corneal stroma) was removed from MEM. The peeled corneal epithelial cell and the MEM containing same were recovered in a 50 mL centrifuge tube, subjected to centrifugation at 1,500 rpm for 5 minutes at room temperature. The supernatant was discarded to give a corneal epithelial cell layer. To the corneal epithelial cell layer was added 1 mL of trypsin-EDTA (Invitrogen) and, after thorough mixing, the cells were incubated at 37° C. for 5 minutes to dissociate adhesion between the cells. To this was added 9 mL of MEM containing 10% fetal bovine serum (FBS; Invitrogen) to stop the enzymatic reaction, and this was subjected again to centrifugation at room temperature and 1,500 rpm for 5 minutes to obtain the corneal epithelial cell layer. To the resulting corneal epithelial cell layer was added […] of a serum-free liquid medium for proliferating a normal rabbit corneal epithelial cell (RCGM2; Kurabo Industries LTD.) to suspend the cell, and this was seeded into a culture dish (IWAKI) for culturing a cell having a diameter of 10 cm, to which 9 mL of RCGM2 had been added. […] The culture medium was exchanged with a fresh culture medium every 48 hours until the test day.
As the test substance, the following compounds were used. • PPARα agonist: WY-14643 (Calbiochem) and fenofibrate (Sigma-Aldrich) • PPARδ agonist: L-165041 (Sigma-Aldrich)
(§1) For studying the effect of promoting cell proliferation by each test substance, a culture medium prepared by removing a mouse-derived epithelial growth factor (mEGF) attached to RCGM2, from RCGM2, was used as a basal medium, while as a positive control for confirming the effect of promoting cell proliferation, a medium with an mEGF added thereto (basal medium+10 ng/mL mEGF) was used according to instructions of an RCGM2 preparation protocol.
As a culture dish for a test of cell proliferation promotion, a 96-well culture dish for tissue culture (Corning) was used. On the day before the test, each 50 μL of 0.01% type I collagen (Nitta Gelatin Inc.) was dispensed into each well of the culture dish, and coating was performed at 4° C. until immediately before the test. On the test day, after a type I collagen solution was removed, the bottom of the culture dish was washed three times using D-PBS, and this was used in the test as a collagen-treated culture dish.
In the test, a rabbit corneal epithelial cell which had been cultured to subconfluent in a culture dish having a diameter of 10 cm was used. After the culture medium was removed, the bottom of the culture dish was washed two times using D-PBS, to this was added 1 mL of trypsin-EDTA, this was incubated at 37° C. for 5 minutes and thereby, the cell was peeled from the bottom of the culture dish. […]

[2] = test system: monkey meibomian gland epithelial cell; assay: Test Example 3: increase in cell number, cultured monkey meibomian gland epithelial cell (Cell Counting Kit-8); assay type: cell-based, cynomolgus monkey; details: 48 + 48 hours; for Cell proliferation (%): no addition group = 100%, average ± standard deviation, N = 5
Description: A female cynomolgus monkey (Environmental Biological Life Science Research Center) was used. The experimental animal was used according to the International Guiding Principles for Biomedical Research Involving Animals.
A meibomian gland epithelial cell was prepared from a monkey eyelid. An eyelid was isolated, and stored in Dulbecco's phosphate buffered saline (D-PBS; Invitrogen), and this was transferred to a clean bench. The following cell preparation procedures were all performed sterilely.
After the isolated eyelid was immersed in 80% ethanol for 30 seconds, the eyelid was washed with D-PBS with 1% penicillin-streptomycin (Invitrogen) added thereto three times, and transferred to a minimum essential medium (MEM; Invitrogen). A fat tissue and a muscle tissue surrounding a meibomian gland tissue were removed under a stereomicroscope, and this was transferred to MEM containing 0.475 U/mL of collagenase A (Roche Diagnostics) and 2.4 U/mL of dispase II (Roche Diagnostics), and incubated at 37° C. overnight. After completion of incubation, the enzyme-treated tissue was placed again under the stereomicroscope, eyelashes and an eyelid connective tissue were removed, and a meibomian gland tissue was isolated. To the isolated gland tissue was added 1 mL of trypsin-EDTA (Invitrogen), and this was incubated at 37° C. for 5 minutes. After incubation, to this was added 9 mL of MEM containing 10% FBS to stop the enzymatic reaction, then, suction and exhaustion were repeated five times using a 10 mL pipette and, further, five times using an injection syringe equipped with a 21 G injection needle to disperse tissue-constituting cells. […] The cell suspension which had passed through the filter was recovered in a 50 mL centrifuge tube, and subjected to centrifugation at room temperature and 1,500 rpm for 5 minutes. To a cell layer containing an objective cell obtained by centrifugation was added 80 μL of D-PBS containing 0.5% bovine serum albumin (BSA; Sigma-Aldrich) to sufficiently suspend the cell, to this was added 20 μL of Anti-Fibroblast Microbeads (Militenyi Biotec), and this was allowed to stand at room temperature for 30 minutes. After completion of the reaction with an antibody, to this was added 2 mL of D-PBS containing 0.5% BSA, and this was subjected again to centrifugation at room temperature and 1,500 rpm for 5 minutes. To a cell layer containing an objective cell obtained by centrifugation was added 1 mL of D-PBS containing 0.5% BSA to sufficiently suspend the cell, and this was added dropwise to an LD column (Militenyi Biotec) equilibrated in advance using a column washing solution (D-PBS containing 2 mM EDTA (Dojindo Laboratories) and 0.5% BSA). Then, 2 mL of the column washing solution was added dropwise to the LD column. […] The cell recovered in the centrifuge tube was subjected again to centrifugation at room temperature and 1,500 rpm for 5 minutes to remove the supernatant. To this precipitation was added 1 mL of Defined Keratinocyte-Serum Free Medium (DK-SFM; Invitrogen) to suspend the cell and thereby, a meibomian gland epithelial cell suspension was prepared. The prepared cell was seeded on a culture dish (IWAKI) for cell culturing having a diameter of 3.5 cm which had been coated with a type I collagen solution (Nitta Gelatin Inc.) in advance, and to which 3 mL of DK-SFM had been added. The seeded cell was cultured in an incubator (SANYO) set at 37° C., 5% CO2, 95% air, and 100% humidity, and the culture medium was exchanged with a fresh culture medium every 48 hours until the test day.
Each test substance was dissolved in ethanol (Wako Pure Chemical Industries, Ltd.) to a 200-fold concentration of a final concentration in the culture medium, and this was stored at −80° C. until immediately before use.
As a culture dish for a cell proliferation promotion test, a 96-well culture dish for tissue culture (Corning) was used.

[3] = test system: rabbit corneal epithelial cell; assay: Test Example 2: increase in cell number, cultured rabbit corneal epithelial cell, 120 hours (Cell Counting Kit-8); assay type: cell-based; details: mEGF 10 ng/mL, no addition group = 100%, average ± standard deviation, N = 5
Description: A male rabbit (Japanese white, weight: about 1.5 kg, […] LABES Co., Ltd.) was used. The experimental animal was used according to the International Guiding Principles for Biomedical Research Involving Animals.
A rabbit corneal epithelial cell was prepared using the same process as that of (Test example 1).
As the test substance, the following compounds were used. • PPARδ agonist: L-165041 (Sigma-Aldrich) and GW-501516 (Alexis)
as §1
Collagen treatment of the culture dish was performed using the same process as that of (Test Example1).
In the test, a rabbit corneal epithelial cell which had been cultured to subconfluent in a culture dish having a diameter of 10 cm was used. After the culture medium was removed, the bottom of the culture dish was washed two times using D-PBS, to this was added 1 mL of trypsin-EDTA, this was incubated at 37° C. for 5 minutes and thereby, the cell was peeled from the bottom of the culture dish. After incubation, 9 mL of MEM containing 10% FBS was added to the culture dish to stop the enzymatic reaction, and this was subjected to centrifugation at room temperature and 1,500 rpm for 5 minutes to obtain a corneal epithelial cell layer. To the resulting cell was added an appropriate amount of RCGM2 to a cell concentration of 1×10^5 cells/mL to suspend the cell. Each 64 μL of this cell suspension was dispensed in each well at the cell number per bottom area (0.32 cm^2) of the collagen-treated 96-well culture dish for tissue culture of […]. […] After 24 hours from cell seeding, the culture medium was discarded, and each 100 μL of the following culture media were freshly dispensed into each well of the culture dish. • [1] Only basal medium (no addition group) • [2] Basal medium+mEGF (final concentration: 10 ng/mL; positive control group) • [3] Basal medium+L-165041 (final concentration: 0.1 μM and 1 μM) • [4] Basal medium+GW-501516 (final concentration: 0.01 μM and 0.1 μM)
The culture supernatant of each well was removed every 48 hours from exchange of the culture medium containing a test substance, and each 100 μL of the freshly prepared culture medium was dispensed into each well.

[4] = test system: normal human corneal epithelial cell; assay: Test Example 5: increase in cell number, normal human corneal epithelial cell, 24 hours (Cell Counting Kit-8); assay type: cell-based; details: mEGF 1 ng/mL, no addition group = 100%, average ± standard deviation, N = 3 to 4
Description: (§2) A normal human corneal epithelial cell (KURABO) was used.
As the test substance, the following compounds were used. PPARδ agonist: L-165041 (Sigma-Aldrich), GW-501516 (Alexis)
In addition, as a positive control for confirming the cell proliferation promoting effect, a medium in which a mouse-derived epithelial growth factor (mEGF) contained in an HCGS proliferation additive set (KURABO) was added to a basal medium (basal medium+1 ng/mL mEGF) was used.
This cell suspension was seeded on a fibronectin-coated multiwell plate (24 well, BECTON DICKINSON) so that the cell number became 2×10^4 cells/500 μL/well (since the bottom area is 2 cm^2, the number is 1×10^4 cells/cm^2).
Further, 24 hours thereafter, the culture medium was exchanged with each 400 μL of the following culture media. • [1] Only basal medium (no addition group) • [2] Basal medium+mEGF (final concentration: 1 ng/mL; positive control group) • [3] Basal medium+L-165041 (final concentration: 0.01 μM and 0.1 μM) • [4] Basal medium+GW-501516 (final concentration: 0.001 μM and 0.01 μM)

[5] = test system: normal human corneal epithelial cell; assay: Test Example 6: increase in cell number, normal human corneal epithelial cell, 48 hours (Cell Counting Kit-8); assay type: cell-based; details: 10^−8 M, no addition group = 100%, average ± standard deviation, N = 4 to 5
Description: as §2
As the test substance, the following compounds were used. • PPARδ Agonist: GW-501516 (Alexis), GW-0742 (Sigma-Aldrich)
Only basal medium (no addition group) • [2] Basal medium+GW-501516 (final concentration: 0.01 μM) • [3] Basal medium+GW-0742 (final concentration: 0.01 μM)

Compound: Cc1cccc(Nc2cc(Cl)nc(SCC(=O)O)n2)c1C [WY-14643, ((4-chloro-6-((2,3-dimethylphenyl)amino)-2-pyrimidinyl)thio)acetic acid]
- Cell proliferation (%) ([1]; 10^−6 M): 155.5 ± 9.4%
- Cell proliferation (%) ([1]; 10^−7 M): 148.9 ± 15.0%

Compound: CC(C)OC(=O)C(C)(C)Oc1ccc(C(=O)c2ccc(Cl)cc2)cc1 [fenofibrate, 1-methylethyl 2-(4-(4-chlorobenzoyl)phenoxy)-2-methylpropionate]
- Cell proliferation (%) ([2]; 10^−5 M): 127.8 ± 5.2%
- Cell proliferation (%) ([2]; 10^−6 M): 114.5 ± 4.5%
- cell proliferation compared to the no addition group (in words) ([2]; p<0.01 where significant): significantly higher than in the no addition group
- Cell proliferation (%) ([1]; 10^−5 M): 147.0 ± 3.2%
- Cell proliferation (%) ([1]; 10^−6 M): 147.3 ± 11.8%

Compound: Cc1c(C)c2c(c(C)c1O)CCC(C)(COc1ccc(CC3SC(=O)NC3=O)cc1)O2 (stereo not shown) [troglitazone]
- Cell proliferation (%) ([2]; 10^−6 M): 99.9 ± 1.9%
- Cell proliferation (%) ([2]; 10^−7 M): 101.6 ± 4.0%

Compound: mEGF: mouse-derived epithelial growth factor, positive control for cell proliferation (NSYPGCPSSYDGYCLNGGVCMHIESLDSYTCNCVIGYSGDRCQTRDLRWWELR; not fully specified; Epidermal growth factor; UniProt P01132 977-1029, looked up)
- Cell proliferation (%) [3]: 222.1 ± 50.9%
- Cell proliferation (%) ([1]; mEGF 10 ng/mL): 144.1 ± 23.1%
- Cell proliferation (%) [4]: 112.1 ± 1.5%

Compound: Cc1cc(SCc2sc(-c3ccc(C(F)(F)F)c(F)c3)nc2C)ccc1OCC(=O)O [GW-0742, (4-(((2-(3-fluoro-4-(trifluoromethyl)phenyl)-4-methyl-5-thiazolyl)methyl)thio)-2-methylphenoxy)acetic acid]
- Cell proliferation (%) [5]: 124.1 ± 13.5%
